The source of these data is the METLIN SMRT retention time set (Domingo-Almenara et al. 2019).

This data set in a line: gradient 5% acetonitrile 3 min, to 50% in 2 min, to 85% in 15 min, held 3 min, 100 µL/min. As to conditions: column: Zorbax Extend-C18 2.1 x 50 mm; eluents: water / acetonitrile, 0.1% formic acid. An outline of the steps: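 Retention time was recorded from adduct peaks, which were picked computationally and each inspected manually. Pure standards ran in mixtures of ~100 molecules on HPLC coupled to a quadrupole time-of-flight mass spectrometer, in positive and negative ionization mode, through a Zorbax Extend-C18 column (2.1 × 50 mm, 1.8 μm) at 100 μL/min. Eluents were water and acetonitrile, each with 0.1% formic acid.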
The molecule `CC(=O)c1cccc(N2C(=O)COc3ccc(Br)cc3C2C(=O)NC2CCCC2)c1` (stereo not given) showed an RP-LC retention time of 913 s.

For the molecule `C=CCN1CCN(c2nc3cc(C(=O)OC)ccc3c(=O)n2-c2ccc(F)c(Cl)c2)CC1`, the RP-LC retention time is 699 s. `O=c1c2nc(-c3ccc(F)cc3F)cn2ccn1-c1cccc(Cl)c1` had an RP-LC retention time of 949 s. The result for `CCc1ccc(CNC(=O)CCC2CCCN(S(=O)(=O)c3ccccc3C)C2)cc1` (stereo not given) reads 1070 s; that for `Cc1cc(C)cc(C(=O)Nc2ccc3c(c2)Sc2ncccc2C(=O)N3C(C)C)c1`, 1030 s; that for `Cc1ccc(C)c(S(=O)(=O)N2CCc3nc(-c4ccc(F)cc4)ncc3C2)c1`, 1200 s. As for `Cc1ccc(CNC(=O)C2CCN(C(=O)c3cc(-c4ccncc4)n[nH]3)CC2)o1`, the RP-LC retention time was 586 s. Molecule `CCOC(=O)C1CCN(C(=O)C2CCN(S(=O)(=O)c3cc(Cl)ccc3OCC)CC2)CC1` came in with an RP-LC retention time of 936 s.

In turn, `Cc1cc(S(=O)(=O)N2CCC(n3cnnc3-c3ccccc3)CC2)ccc1Cl` returned an RP-LC retention time of 869 s. With `CC(=O)Nc1cccc2c(C(=O)NC(C)c3ccc(C)cc3C)ccnc12` (stereo not given), the RP-LC retention time was found to be 896 s.

`COC(=O)c1cc(OCC(=O)Nc2ccc(OC)c(OC)c2)c2cc(F)ccc2n1` showed an RP-LC retention time of 756 s. In the case of `Cc1ccccc1OCC(=O)N1CCCC1c1nc(-c2cccc(Cl)c2)no1` (stereo not given), the RP-LC retention time is 1150 s.

`CCc1ccc2nc(Nc3nc(C)c4c(n3)CCCC4)nc(C)c2c1` yielded an RP-LC retention time of 754 s.

In turn, `CN(C)C(=O)c1cc2c(s1)CCC(C(=O)N1CCN(c3ccccc3)CC1)C2` (stereo not given) yielded an RP-LC retention time of 735 s. As to `CCC1(C(=O)Nc2ccc(C(C)C)cc2)CCCCC(=O)N1` (stereo not given), the RP-LC retention time is 872 s. As for `CCCCn1cc(S(=O)(=O)Nc2ccccc2)c2cccnc21`, the RP-LC retention time was 937 s. Molecule `Cc1ccc2c(c1)OCC(=O)N2Cc1nc(-c2cccc(Cl)c2)no1` registered an RP-LC retention time of 1160 s. As for `Cc1cccc(Nc2nc(-c3ccncc3)cs2)c1`, the RP-LC retention time is 734 s. For the molecule `CCc1nc2ccccc2c(=O)n1Cc1noc(-c2ccc(F)cc2)n1`, the RP-LC retention time turned out to be 998 s. In turn, `CCc1noc(NC(C)=O)c1-c1ccc(C)c(S(=O)(=O)Nc2ccc(C(F)(F)F)cc2)c1` registered an RP-LC retention time of 902 s. `CCOc1ccc(C(=O)N2CCC3(C2)C(=O)N(C)c2ccccc23)cc1` (stereo not given) registered an RP-LC retention time of 802 s. Take `O=c1cccnn1CCCNS(=O)(=O)c1ccc2c(c1)OCCO2`: the RP-LC retention time was found to be 645 s. The result for `CCC(C)NC(=O)c1ccc(-c2cccs2)nc1` (stereo not given) reads 816 s. `CCC(=O)Nc1nc(-c2ccc(C(C)C)cc2)cs1` displayed an RP-LC retention time of 1000 s. For `O=C(COc1ccccc1)N1CCN(c2cc(-c3ccccc3)[nH]n2)CC1`, the RP-LC retention time worked out at 776 s.

`CCn1ccc2sc(C)c(C(=O)NCc3cccc(Br)c3)c2c1=O` had an RP-LC retention time of 918 s.

`O=C(C1CC(=O)N(C2CCCC2)C1)N1CCC(c2c[nH]c3ccccc23)(c2c[nH]c3ccccc23)CC1` (stereo not given) came in with an RP-LC retention time of 850 s.

Molecule `CC(C(=O)Nc1ccc(F)c(F)c1)C1CCN(C(=O)Nc2ccc(Cl)cc2)CC1` (stereo not given) came in with an RP-LC retention time of 984 s.

Consider `COCCN(CC1(C)CCOCC1)C(=O)NCc1ccc(F)cc1`, for which the RP-LC retention time was 752 s. With `O=C(NC1CC1)c1ccc(-c2ccsc2)nc1`, the RP-LC retention time worked out at 688 s. The result for `CCCCn1cc(S(=O)(=O)Nc2cc(C)ccc2F)c2cccnc21` reads 754 s.

As for `Cn1c(=O)oc2cc(-c3noc(-c4cccc5[nH]ccc45)n3)ccc21`, the RP-LC retention time worked out at 932 s. For the molecule `O=C(c1noc2ccc(S(=O)(=O)N3CCCc4ccccc43)cc12)N1CCCC1`, the RP-LC retention time came out at 1060 s.

In turn, `COc1cccc(NC(=O)N2CCC(n3c(C(F)(F)F)nc4cccnc43)CC2)c1` returned an RP-LC retention time of 861 s. For the molecule `Cc1cc(C)c2c(N(C)C)nc(C(=O)Nc3ccc(N4CCOCC4)cc3)nc2n1`, the RP-LC retention time came to 595 s.

Consider `O=C(NCCc1csc(-c2ccccc2)n1)C1CCN(C(=O)c2ccc(F)c(Cl)c2)CC1`, for which the RP-LC retention time was found to be 1020 s.

On to `CCN(CC)S(=O)(=O)c1cccc(-c2nnc(-c3ccccc3Br)o2)c1`, for which the RP-LC retention time was determined as 1100 s. `Cn1nc(C(=O)N2CCC3(CC2)N=C(c2cccc(Br)c2)NO3)c2ccccc21` displayed an RP-LC retention time of 923 s. `Cc1onc(-c2ccccc2Cl)c1C(=O)NCCn1nc(-c2ccccc2)n(C)c1=O` came in with an RP-LC retention time of 708 s. Regarding `CC(=O)Nc1ccc(S(=O)(=O)N2CC=C(c3cn(C)c4ncccc34)CC2)cc1`, the RP-LC retention time is 764 s. `Cc1ccc(Cl)cc1N1CCN(C(=O)C2CCN(S(=O)(=O)c3cn(C(C)C)cn3)CC2)CC1` gave an RP-LC retention time of 964 s. For the molecule `N#CC1=CN(c2cccc(C(F)(F)F)c2)c2ccccc2S1(=O)=O`, the RP-LC retention time was 930 s. Turning to `COC(=O)c1ccc(NC(=O)Cn2nc3n(c2=O)CCCC3)cc1`, the RP-LC retention time stood at 647 s.

On to `O=C(Nc1ccc(F)cc1F)N1CCc2nc(-c3ccc(F)cc3)ncc2C1`, for which the RP-LC retention time was determined as 932 s. On to `Cc1ccsc1C(=O)Nc1ccc(Cn2cncn2)cc1`, for which the RP-LC retention time is 695 s.

Turning to `CC(C)NC(=O)N1CCc2c(c(-c3nc(-c4cccc(F)c4)no3)nn2C)C1`, the RP-LC retention time turned out to be 853 s.

For `Cc1cc2nn(CC(=O)Nc3ccc(C)c(F)c3)c(=O)n2c(N2CCCC2)n1`, the RP-LC retention time was determined as 805 s. Molecule `O=C(NCC1CCCO1)N1CCCn2nc(-c3cccc(Cl)c3)cc2C1` (stereo not given) returned an RP-LC retention time of 792 s. In turn, `Cc1ccc(NC(=O)Cn2nc(N3CCCC(C)C3)c3ccccc3c2=O)c(C)c1` (stereo not given) displayed an RP-LC retention time of 1150 s. Turning to `Cn1c(=O)c(N2CCN(C(=O)c3cc(F)cc(F)c3)CC2)nc2cccnc21`, the RP-LC retention time was found to be 860 s. The molecule `O=C(Cn1ccc2sccc2c1=O)N1CCN(c2ccccc2)CC1` yielded an RP-LC retention time of 724 s. The result for `Cc1ccc(S(=O)(=O)N2CCc3c(c(-c4nnc(-c5ccccc5F)o4)nn3C)C2)cc1C` reads 988 s; that for `COc1ccc(-c2nnc(-c3cccnc3NCc3ccc(OC)c(OC)c3)o2)cc1`, 1060 s.

`COc1cccc(N2CCN(C(=O)Cc3csc4nc(-c5ccccc5)cn34)CC2)c1` displayed an RP-LC retention time of 833 s.

In turn, `CCCCN(C)c1ccc(NC(=O)Cc2cccs2)c(C(=O)O)c1` had an RP-LC retention time of 759 s. The molecule `COc1ccc(-c2nnc(-c3cc(S(=O)(=O)N4CCOCC4)ccc3Cl)o2)cc1` showed an RP-LC retention time of 950 s. In the case of `COC(=O)c1ncn2c1C(=O)N(Cc1ccc(F)cc1)C(C)(C(=O)NCc1ccc(C)cc1)C2` (stereo not given), the RP-LC retention time turned out to be 772 s. As to `CCN(CC)C(=O)c1ccc2c(c1)N(CC(=O)NCCOC)C(=O)CO2`, the RP-LC retention time is 624 s.

`Cc1cc(=O)c2c(C)ccc(C)c2[nH]1`: the RP-LC retention time worked out at 677 s. For the molecule `O=C(CCC1CCCN(C(=O)Nc2ccc(Cl)cc2)C1)NCc1cccc(Cl)c1` (stereo not given), the RP-LC retention time was determined as 960 s. Molecule `COCCNC(=O)Nc1nnc(-c2ccccc2Cl)o1` showed an RP-LC retention time of 647 s. The figure for `Cc1noc(C)c1S(=O)(=O)N1CCC(CC(=O)NCCc2c[nH]c3ccccc23)CC1` is 816 s; for `CCc1nnc2ccc(NCC3CCCO3)nn12` (stereo not given) it is 646 s.

For `COc1ccc(S(=O)(=O)N2[C@H]3CC[C@@H]2c2cnc(C)nc2C3)cc1`, the RP-LC retention time stood at 693 s. The figure for `Cc1nc2cc(-c3noc(-c4ccc(C#N)cc4F)n3)ccc2o1` is 1000 s; for `CC(C)(C)c1cc(NC(=O)CSCc2ccccc2)n(CCO)n1` it is 772 s.

`COc1ccc(Cn2ccc3ccc(C(=O)NO)cc32)cc1` yielded an RP-LC retention time of 782 s.

Take `CCOC(=O)c1noc2nc(C)nc(NCCCN3CCN(c4cc(Cl)ccc4C)CC3)c12`: the RP-LC retention time was 948 s.

The molecule `CN1C(=O)C(CC(=O)N2CCCCCC2)Sc2ncccc21` (stereo not given) registered an RP-LC retention time of 705 s. The result for `COc1ccc(Cl)cc1NC(=O)Cn1c(C)nc(-c2ccccn2)cc1=O` reads 727 s; that for `CC(C)c1ccccc1NC(=O)C1CCN(S(C)(=O)=O)c2ccccc2O1` (stereo not given), 945 s; that for `CCc1nn2c(CNS(=O)(=O)c3ccc(F)cc3)c(-c3ccccc3)nc2s1`, 932 s.

`CCc1ccc(-c2ccc(=O)n(CCc3nc(-c4ccc(C)cc4)no3)n2)cc1` yielded an RP-LC retention time of 1180 s. `CCC(C)NS(=O)(=O)c1ccc(-c2n[nH]c(C)c2C)o1` (stereo not given): the RP-LC retention time came to 772 s. The molecule `O=c1oc2cc(O)ccc2cc1-c1cc(F)cc(F)c1` yielded an RP-LC retention time of 908 s. In turn, `COc1ccccc1NC(=O)N1CCC2(CC1)NC(=O)c1cc(Cl)ccc1N2C` returned an RP-LC retention time of 806 s. With `COc1ccc(NC(=O)c2cc(C(C)C)n(-c3nc4ccccc4s3)n2)cc1OC`, the RP-LC retention time was determined as 1200 s.

For the molecule `Cn1cc(C(=O)Nc2ccc3c(c2)CCC3)c(S(=O)(=O)N2CCSCC2)n1`, the RP-LC retention time came out at 1040 s. The figure for `Cc1nn(-c2nc(CC(=O)N3CCC(C)CC3)cs2)c(C)c1Cl` is 1190 s; for `CCOCCCNC(=O)c1cnn2c(C(F)(F)F)cc(-c3ccccc3)nc12` it is 1010 s.
